Source: ChEMBL document CHEMBL1158034, “Synthesis and cytotoxicity of racemic isodeoxypodophyllotoxin analogues with isoprene-derived side chains” (J Nat Prod, 2006)

Legend:
Format in all cases: functional, cell-based
KB = test: Cytotoxicity against human KB cells after 72 hrs by MTT assay
[1] = Cytotoxicity against human BEL-7404 cells after 72 hrs by MTT assay; details: BEL-7404, 72 h
A549 = test: Cytotoxicity against human A549 cells after 72 hrs by MTT assay; details: A549, 72 h
HL-60 = test: Cytotoxicity against human HL-60 cells after 72 hrs by MTT assay; details: HL-60, 72 h

For `COc1cc2c(cc1OC)[C@H](c1ccc(OC)c(OC/C=C(\C)CC/C=C(\C)CCC=C(C)C)c1)[C@H]1C(=O)OC[C@@H]1C2` (racemic), the IC50 (KB) was 3.76 µM and the IC50 [1] was 5.63 µM.

Work on `COC(=O)[C@H]1[C@H](CO)Cc2cc(OC)c(OC)c(OC)c2[C@@H]1c1ccc(O)c(OC)c1` (racemic) yielded an IC50 (A549) of 14.5 µM.

`COc1cc2c(cc1OC)[C@H](c1ccc(OCc3ccccc3)c(OC)c1)[C@H]1C(=O)OC[C@@H]1C2` (racemic) showed an IC50 (KB) of 2.65 µM and an IC50 [1] of 14.8 µM.

`COC(=O)[C@H]1[C@H](CO)Cc2cc(OC)c(OC)c(OC)c2[C@@H]1c1ccc(OC/C=C(\C)CCC=C(C)C)c(OC)c1` (racemic) showed an IC50 (HL-60) of 4.54 µM.

In the case of `COc1cc([C@@H]2c3cc4c(cc3[C@@H](O[C@@H]3O[C@@H]5CO[C@@H](C)O[C@H]5[C@H](O)[C@H]3O)[C@H]3COC(=O)[C@H]23)OCO4)cc(OC)c1O` [ETOPOSIDE], the IC50 (HL-60) is reported as 10.5 µM.
